# Results from PubChem BioAssay (NCI).
#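 Cells were grown in 96-well plates and exposed to each compound for 48 hours at five concentrations; endpoints were interpolated linearly between bracketing concentrations, or set to the highest concentration if not reached. Definition used: TGI = concentration required for complete inhibition of growth.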
# Experiments:
# Test in all cases: NCI tumour cell line growth inhibition, 48 h
# 786-0 renal = tested on: 786-0 renal
# A498 renal = tested on: A498 renal
# A549 NSCLC = tested on: A549 NSCLC
# ACHN renal = tested on: ACHN renal
# BT-549 breast = tested on: BT-549 breast
# CAKI-1 renal = tested on: CAKI-1 renal
# CCRF-CEM leukemia = tested on: CCRF-CEM leukemia
# COLO 205 colon = tested on: COLO 205 colon
# DU-145 prostate = tested on: DU-145 prostate
# EKVX NSCLC = tested on: EKVX NSCLC
# HCC-2998 colon = tested on: HCC-2998 colon
# HCT-116 colon = tested on: HCT-116 colon
# HCT-15 colon = tested on: HCT-15 colon
# HL-60(TB) leukemia = tested on: HL-60(TB) leukemia
# HOP-62 NSCLC = tested on: HOP-62 NSCLC
# HOP-92 NSCLC = tested on: HOP-92 NSCLC
# HS 578T breast = tested on: HS 578T breast
# HT29 colon = tested on: HT29 colon
# IGROV1 ovarian = tested on: IGROV1 ovarian
# K-562 leukemia = tested on: K-562 leukemia
# KM12 colon = tested on: KM12 colon
# LOX IMVI melanoma = tested on: LOX IMVI melanoma
# M14 melanoma = tested on: M14 melanoma
# MALME-3M melanoma = tested on: MALME-3M melanoma
# MCF7 breast = tested on: MCF7 breast
# MDA-MB-435 = tested on: MDA-MB-435
# MDA-N = tested on: MDA-N
# MOLT-4 leukemia = tested on: MOLT-4 leukemia
# NCI-H226 lung = tested on: NCI-H226 lung
# NCI-H23 lung = tested on: NCI-H23 lung
# NCI-H460 lung = tested on: NCI-H460 lung
# NCI-H522 lung = tested on: NCI-H522 lung
# NCI/ADR-RES ovarian = tested on: NCI/ADR-RES ovarian
# OVCAR-3 ovarian = tested on: OVCAR-3 ovarian
# OVCAR-4 ovarian = tested on: OVCAR-4 ovarian
# OVCAR-5 ovarian = tested on: OVCAR-5 ovarian
# OVCAR-8 ovarian = tested on: OVCAR-8 ovarian
# PC-3 prostate = tested on: PC-3 prostate
# RPMI-8226 leukemia = tested on: RPMI-8226 leukemia
# RXF 393 renal = tested on: RXF 393 renal
# SF-268 CNS = tested on: SF-268 CNS
# SF-295 CNS = tested on: SF-295 CNS
# SF-539 CNS = tested on: SF-539 CNS
# SK-MEL-2 melanoma = tested on: SK-MEL-2 melanoma
# SK-MEL-28 melanoma = tested on: SK-MEL-28 melanoma
# SK-MEL-5 melanoma = tested on: SK-MEL-5 melanoma
# SN12C renal = tested on: SN12C renal
# SNB-19 CNS = tested on: SNB-19 CNS
# SNB-75 CNS = tested on: SNB-75 CNS
# SR leukemia = tested on: SR leukemia
# SW-620 colon = tested on: SW-620 colon
# T-47D breast = tested on: T-47D breast
# TK-10 renal = tested on: TK-10 renal
# U251 CNS = tested on: U251 CNS
# UACC-257 melanoma = tested on: UACC-257 melanoma
# UACC-62 melanoma = tested on: UACC-62 melanoma
# UO-31 renal = tested on: UO-31 renal
smiles,measurement,setting,value
Cc1cc2c(cc1C)C(=O)/C(=C/c1ccccc1C(=O)O)C2,TGI,786-0 renal,> 100 µM
same,TGI,A498 renal,88.6 µM
same,TGI,A549 NSCLC,> 100 µM
same,TGI,ACHN renal,> 100 µM
same,TGI,BT-549 breast,> 100 µM
same,TGI,CAKI-1 renal,> 100 µM
same,TGI,CCRF-CEM leukemia,> 100 µM
same,TGI,COLO 205 colon,36.3 µM
same,TGI,DU-145 prostate,> 100 µM
same,TGI,EKVX NSCLC,> 100 µM
same,TGI,HCC-2998 colon,> 100 µM
same,TGI,HCT-116 colon,> 100 µM
same,TGI,HCT-15 colon,> 100 µM
same,TGI,HL-60(TB) leukemia,> 100 µM
same,TGI,HOP-62 NSCLC,> 100 µM
same,TGI,HOP-92 NSCLC,> 100 µM
same,TGI,HS 578T breast,> 100 µM
same,TGI,HT29 colon,> 100 µM
same,TGI,IGROV1 ovarian,> 100 µM
same,TGI,K-562 leukemia,> 100 µM
same,TGI,KM12 colon,> 100 µM
same,TGI,LOX IMVI melanoma,83.5 µM
same,TGI,M14 melanoma,> 100 µM
same,TGI,MALME-3M melanoma,> 100 µM
same,TGI,MCF7 breast,> 100 µM
same,TGI,MDA-MB-435,> 100 µM
same,TGI,MDA-N,> 100 µM
same,TGI,MOLT-4 leukemia,> 100 µM
same,TGI,NCI-H226 lung,57.8 µM
same,TGI,NCI-H23 lung,66.7 µM
same,TGI,NCI-H460 lung,> 100 µM
same,TGI,NCI-H522 lung,> 100 µM
same,TGI,NCI/ADR-RES ovarian,> 100 µM
same,TGI,OVCAR-3 ovarian,> 100 µM
same,TGI,OVCAR-4 ovarian,> 100 µM
same,TGI,OVCAR-5 ovarian,68.9 µM
same,TGI,OVCAR-8 ovarian,> 100 µM
same,TGI,PC-3 prostate,> 100 µM
same,TGI,RPMI-8226 leukemia,75.2 µM
same,TGI,RXF 393 renal,> 100 µM
same,TGI,SF-268 CNS,> 100 µM
same,TGI,SF-295 CNS,> 100 µM
same,TGI,SF-539 CNS,39.6 µM
same,TGI,SK-MEL-2 melanoma,> 100 µM
same,TGI,SK-MEL-28 melanoma,> 100 µM
same,TGI,SK-MEL-5 melanoma,> 100 µM
same,TGI,SN12C renal,> 100 µM
same,TGI,SNB-19 CNS,> 100 µM
same,TGI,SNB-75 CNS,> 100 µM
same,TGI,SR leukemia,62.7 µM
same,TGI,SW-620 colon,> 100 µM
same,TGI,T-47D breast,> 100 µM
same,TGI,TK-10 renal,> 100 µM
same,TGI,U251 CNS,68.8 µM
same,TGI,UACC-257 melanoma,> 100 µM
same,TGI,UACC-62 melanoma,> 100 µM
same,TGI,UO-31 renal,> 100 µM
